Data published in patent US8309138B2, “Pharmaceutical composition comprising microparticle oily suspension” (ASKA Pharmaceutical Co., Ltd., priority 2007, dated 2012).

Assay: Solubility of the compound of formula (i)
Assay type: physicochemical
Experimental: Solubility of this compound is 1.09 μg/mL in Solution 1 (pH 1.2) defined in the Japanese Pharmacopoeia at 37° C., 0.88 μg/mL in Solution 2 (pH 6.8) defined in the Japanese Pharmacopoeia at 37° C., 0.53 μg/mL in a phosphate buffer (pH 7.2) at 37° C., and about 2 mg/mL in Panasate at room temperature.

With `O=C(Cc1c(F)cccc1Cl)Nc1onc(-c2ccc(F)cc2)c1-c1ccncn1` [formula (i)] the solubility (Solution 1 defined in the Japanese Pharmacopoeia, simulated gastric fluid, Solution 1 (pH 1.2) defined in the Japanese Pharmacopoeia at 37° C.) was 1.09 µg/mL, the solubility (Solution 2 defined in the Japanese Pharmacopoeia, aqueous buffer, Solution 2 (pH 6.8) defined in the Japanese Pharmacopoeia at 37° C.) was 0.88 µg/mL and the solubility (aqueous buffer, phosphate buffer (pH 7.2) at 37° C.) was 0.53 µg/mL. It also gave a solubility (oil or lipid, in Panasate at room temperature) of roughly 2000 µg/mL.
